Assay results: patent US9255088B2, “Premature-termination-codons readthrough compounds” (The Regents of the University of California, priority 2010, dated 2016)
“Also recorded” adds a separate entry of the source.

Experiments:
[1] = system: dystrophin in mdx myotubes (TAA); assay: Dystrophin expression in mdx myotubes; assay type: cell-based, mouse; settings: FIG. 21
Procedure: To investigate the ability of RTC#13 and #14 to readthrough a PTC mutation in genes other than ATM, we used mdx myotubes. The mdx mouse has been widely used as a model for Duchenne muscular dystrophy. It carries a C to T transition in exon 23 of the dystrophin gene that creates a premature stop codon (TAA), resulting in an absence of dystrophin protein (Sicinski, et al., 1989, Science. 244:1578-1580). […] Muscle progenitor cells isolated from mdx mice were induced to differentiate for 24 h before addition of gentamicin or compounds RTC#13 and #14. Myotube cultures were exposed to compounds for 72 h and then analyzed for dystrophin by Western blotting. […] We next used immunoprecipitation to increase the sensitivity of the assay (FIG. 8). […] Results were consistent in multiple experiments performed.
Cells were prepared and treated with RTCs for 3 d. Dystrophin proteins were detected by Western blot analysis using immunoprecipitation. Wild-type cells were used in the experiment to localize dystrophin protein. Gentamicin was used as a positive readthrough control. […] Results were consistent in three independent experiments.
Cells were derived from limb muscle of neonatal mdx and C57 mice, as previously described (Bertoni and Rando, 2002, Hum. Gene Ther. 13:707-718). For growth, cells were plated on dishes coated with 5 µg/ml laminin (Invitrogen) and maintained in growth medium consisting of Ham's F10 nutrient mixture (Mediatech, Inc.) supplemented with 20% fetal bovine serum, penicillin, and streptomycin. Cell differentiation was induced by maintaining the cells in low serum medium (differentiation medium) consisting of DME supplemented with 2% horse serum, penicillin, and streptomycin. Myoblasts were plated in wells of 6-well dishes and were allowed to differentiate for 24 h before adding the compounds. Media was replaced every 24 h with fresh differentiation media containing the compounds. Cells were lysed 96 h after induction of differentiation (72 h after addition of the compounds). Total protein was determined and dystrophin immunoblot analysis was performed as previously described (Sicinski et al., 1989). 250 μg of total protein from each sample was immunoprecipitated using a monoclonal antibody directed toward the rod domain (MANDYS—8; 1:40; Sigma-Aldrich) of the dystrophin protein and detected by Western blotting (Barton-Davis et al., 1999, J. Clin. Invest. 104:375-381; Bertoni and Rando, 2002).
Muscle cells were induced to differentiate to allow the formation of myotubes and synthesis of dystrophin mRNA. Compounds were added 24 hrs after induction of differentiation by direct addition into the media. The media was replaced every 24 hrs with fresh differentiation media containing the appropriate concentration of compounds. Myotubes were harvested 72 hrs later (96 hrs after induction of differentiation) and analyzed for dystrophin expression by immunoblot analysis (FIG. 14).
Cultures were analyzed for dystrophin expression by immunohistochemistry.
In the experiments shown in FIG. 21, the activity of two of the analogs of RTC#13 termed RTC#BZ6 and RTC#BZ16 was investigated in myotube cultures isolated from mdx mice. Compounds were added to the differentiation media 24 hrs after induction of differentiation and replaced every 24 hrs by changing the media with new fresh media containing the appropriate concentration of RTC#13, RTC#BZ6 or RTC#BZ16. […] No dystrophin expression was detected in cells treated with vehicle only at a final concentration of 10 μM.

[2] = system: ATMs1981 autophosphorylation in AT153LA cells (TGA); assay: Flow cytometry ATMs1981 autophosphorylation (FC-ATM) in AT153LA cells; assay type: cell-based, human; parameters: FC-ATM (Delta-FI, 30 μM): unit not given here; settings: for FCATMs1981: summary of positive results; for FCATMs1981: key: the positive results on various assays are also summarized and labeled as '+'
Procedure: FC-SMC1 assay was performed as recently described (Nahas et al., 2009). FC-ATM-Ser1981 assay was based on Honda's assay (Honda et al., 2009, Leukemia. 23:409-414) with modifications. In brief, cells were resuspended in PBS and radiated for 10 Gy. After 1 h, the cells were fixed and permeabilized using the FIX & PERM cell permeabilization kit (Invitrogen). The cells were then incubated with 1 μl of mouse ATM-Ser1981 antibody (Cell Signaling Technology) for 2 h at room temperature. Cells were washed and resuspended in 100 μl PBS with Alexa Fluor 488 anti-mouse IgG (Invitrogen) for 45 min. Cells were next washed and resuspended in PBS with 0.2% paraformaldehyde and analyzed using a FACSCalibur (BD).
Studies on readthrough activity of RTC#13 derivatives as measured by FC-ATMS 1981 were performed according to the procedures provided in Example 1.
These two series, 7 and 9, were tested for readthrough activity using an assay in which the ATM protein kinase activity was measured using a flow cytometry-based ATMs1981 autophosphorylation assay (FC-ATM) (Nahas, S. A; et al., Clin. Chem. 2009, 55, 463-72). […] An increased Delta-FI indicates the restoration of ATM kinase activity by a compound.
(§1) These two series, 13 and 15, were again tested for readthrough activity using the assay in which the ATM protein kinase activity was measured by functional flow cytometry (FC-ATM) (Table 4 and FIG. 12). A second assay, irradiation (1R)-induced ATMs1981 nuclear foci formation (IRIF-ATM), was also used to confirm the readthrough activity of these compounds (Table 4 and FIG. 13). Table 3 summarizes the data for the analogues 13 and 15 (at 30 μM), in which the groups R, R′, and X were varied. More detailed data are reported in FIG. 5 (for FC-ATM assay), and in FIG. 6 (for IRIF-ATM assay). […] Thus, the pyrimidinedione unit serves as a good structural replacement for the 2-imino and 2-thioxo thiazolidin-4-one units.

[3] = system: ATM-Ser1981 foci in AT153LA cells (TGA A); assay: Irradiation-induced ATM-Ser1981 foci (IRIF) in AT153LA cells; for IRIF (ATMs1981): key: the positive results on various assays are also summarized and labeled as '+'; assay type: cell-based, human; settings: for IR-induced ATMs1981 foci formation, readthrough activity: A-T153LA cells (TGA), FIG. 13; for IRIF-ATM (%) (30 μM): Table 4, IR-induced ATMs1981 nuclear foci formation
Procedure: To evaluate the function of RTC-induced ATM protein, we measured irradiation-induced foci (IRIF) formation of ATM-Ser1981 in the same ATI53LA cells (TGA A). […] The maximum IRIF induction achieved in A-T cells by 10 μM RTC#13 was ˜40% of wild-type level. As a positive readthrough control, 144 μM of G418 (100 μg/ml) was used to treat cells. Our previous studies had shown that, at this concentration, […] induced a maximum level of ATMs1981 IRIF (Lai et al., 2004).
Immunostaining of nuclear foci of ATM-Ser1981 was performed as previously reported (Du et al., 2007). In brief, after being treated with compound for 4 d, cells were irradiated with 2 Gy and incubated at 37° C. for 30 min. The cells were dropped onto coverslips, fixed with 4% paraformaldehyde, and permeabilized. Coverslips were blocked for 1 h and incubated with mouse anti-ATM pSer1981 for 1 h (1:500; Rockland Immunochemicals, Inc). After a second blocking, cells were stained with FITC-conjugated anti-mouse IgG (1:150; Jackson ImmunoResearch Laboratories) for 1 h and mounted onto slides.
Studies on IR-induced ATMs1981 foci formation by RTC#13 and derivatives 13a, 13b, 13d, 13e, 13f, 13g, 13h, 13i, 13j, and 13k in A-T153LA cells (TGA) were performed according to the procedures provided in Example 1.
as §1

[4] = system: plasmid-TAT51: ATM region 5 fragment with nonsense (PTC) mutation c.5623C→T (TGA C); assay: PTT-ELISA readthrough assay, plasmid-TAT51 (TGA C); settings: summary of positive results; plasmid not stated
[5] = cited from earlier work
[6] = Table 4, compounds 13 and 15, 30 μM
[7] = Table 2, compounds 7, 30 µM, change in fluorescence intensity before and after ionizing radiation

N=C1NC(=O)/C(=C/c2c[nH]c(=O)[nH]c2=O)S1 [Compound 13k, (Z)-5-((2-imino-4-oxothiazolidin-5-ylidene)methyl)pyrimidine-2,4(1H,3H)-dione]
dystrophin expression in mdx myotube cultures [1]: levels of dystrophin expression comparable to that achieved using the parent compound RTC#13
FC-ATM readthrough activity [2]: good activity
FC-ATM (Delta-FI, 30 μM) [2, 6]: 5.32
FCATMs1981 [2]: +
IR-induced ATMs1981 foci formation, readthrough activity [3]: statistically significant readthrough activity; also recorded: good activity
IRIF-ATM (%) (30 μM) [3]: 17%
IRIF (ATMs1981) ([3]; summary of positive results): +

N=C1NC(=O)/C(=C/c2ccc(-c3ccccc3C(F)(F)F)o2)S1 [Compound 7d, (Z)-2-imino-5-((5-(2-(trifluoromethyl)phenyl)furan-2-yl)methylene)thiazolidin-4-one]
FC-ATM (Delta-FI, 30 μM) [2, 7]: negative
PTT-ELISA [4]: +

N=C1NC(=O)/C(=C/c2ccc(-c3ccccc3Cl)o2)S1 [Compound 7f, (Z)-5-((5-(2-chlorophenyl)furan-2-yl)methylene)-2-iminothiazolidin-4-one]
FC-ATM (Delta-FI, 30 μM) [2, 7]: negative
PTT-ELISA [4]: +

O=C1NC(=S)S/C1=C\c1ccc(-c2ccccc2Cl)o1 [Compound 7m, (Z)-5-((5-(2-chlorophenyl)furan-2-yl)methylene)-2-thioxothiazolidin-4-one]
FC-ATM readthrough activity [2]: the best of this group
FC-ATM (Delta-FI, 30 μM) [2, 7]: 3.55
FCATMs1981 [2]: +
PTT-ELISA [4]: +

O=c1ccn(Cc2ccc(-c3ccccc3[N+](=O)[O-])o2)c(=O)[nH]1 [Compound 13a, 1-((5-(2-nitrophenyl)furan-2-yl)methyl)pyrimidine-2,4(1H,3H)-dione]
concentration giving the highest level of readthrough activity [1]: 5 µM
dystrophin expression in mdx myotube cultures [1]: effective
FC-ATM (Delta-FI, 30 μM) [2, 6]: 4.94
FCATMs1981 [2]: +
IR-induced ATMs1981 foci formation, readthrough activity [3]: statistically significant readthrough activity
IRIF-ATM (%) (30 μM) [3]: 10.67%

N=C1NC(=O)/C(=C/c2ccc(-c3cccc(F)c3)o2)S1 [Compound 7j, (Z)-5-((5-(3-fluorophenyl)furan-2-yl)methylene)-2-iminothiazolidin-4-one]
FC-ATM (Delta-FI, 30 μM) [2, 7]: negative
PTT-ELISA [4]: +

O=C1NC(=S)S/C1=C\c1ccc(-c2ccccc2F)o1 [Compound 7n, (Z)-5-((5-(2-fluorophenyl)furan-2-yl)methylene)-2-thioxothiazolidin-4-one]
FC-ATM (Delta-FI, 30 μM) [2, 7]: 2.86
FCATMs1981 [2]: +
PTT-ELISA [4]: +

O=c1[nH]c(=O)n(Cc2ccc(-c3ccccc3[N+](=O)[O-])o2)cc1F [Compound 13b, 5-fluoro-1-((5-(2-nitrophenyl)furan-2-yl)methyl)pyrimidine-2,4(1H,3H)-dione]
FC-ATM (Delta-FI, 30 μM) [2, 6]: 2.08
FCATMs1981 [2]: +
IR-induced ATMs1981 foci formation, readthrough activity [3]: statistically significant readthrough activity
IRIF-ATM (%) (30 μM) [3]: 14.5%

N=C1NC(=O)/C(=C/c2ccc(-c3ccccc3)o2)S1 [Compound 7a, (Z)-2-imino-5-((5-phenylfuran-2-yl)methylene)thiazolidin-4-one]
FC-ATM (Delta-FI, 30 μM) [2, 7]: negative
PTT-ELISA [4]: +

O=C1NC(=S)S/C1=C\c1ccc(-c2cccc(F)c2)o1 [Compound 7q, (Z)-5-((5-(3-fluorophenyl)furan-2-yl)methylene)-2-thioxothiazolidin-4-one]
FC-ATM readthrough activity [2]: the best of this group
FC-ATM (Delta-FI, 30 μM) [2, 7]: 3.44
FCATMs1981 [2]: +
PTT-ELISA [4]: +

O=C1NC(=S)S/C1=C\c1ccc(-c2ccccc2[N+](=O)[O-])o1 [Compound 7b, (Z)-5-((5-(2-nitrophenyl)furan-2-yl)methylene)-2-thioxothiazolidin-4-one]
FC-ATM (Delta-FI, 30 μM) [2, 7]: negative
PTT-ELISA [4]: +

O=C(O)c1cccc(-c2noc(-c3ccccc3F)n2)c1 [PTC124]
tolerability ([5]; phase-I clinical study in cystic fibrosis): generally well tolerated
readthrough activity compared with aminoglycosides ([5]; phase-I clinical study): more efficient readthrough activity than aminoglycosides

COc1ccccc1-c1ccc(/C=C2\SC(=N)NC2=O)o1 [Compound 7e, (Z)-2-imino-5-((5-(2-methoxyphenyl)furan-2-yl)methylene)thiazolidin-4-one]
FC-ATM (Delta-FI, 30 μM) [2, 7]: negative
PTT-ELISA [4]: +
